Values joined by “and” are separate entries in the source; they are usually repeats but may differ in a detail not shown here. Equal values may be shown once.
Legend:
[1] = tested on: amyloid-beta in TgAPP mice; assay: Immunohistochemistry for amyloid-beta (6E10), hippocampus; type: in vivo, mouse; conditions: BK40143 5 mg/kg, BK40197 45 mg/kg, vs DMSO
Experimental: Staining for amyloid-beta and microglia was performed on left brain hemispheres collected from treated and untreated mice. Brains were cryoprotected with 30% sucrose and sectioned at 30 μm on a cryostat. Sections were then treated with an anti-amyloid beta (6E10, cat. #803001; BioLegend) or anti-IBA1 (cat. # 018-28523; Wako Chemicals) primary followed by either an AlexaFluor secondary (Thermo Fisher Scientific) and DAPI mounting medium (Vector Labs) or a biotinylated secondary and 3, 3′ diaminobenzidine chromogen substrate. Slides were imaged on either a Leica DMi8 light microscope or a Zeiss LSM 800 confocal microscope.

[2] = tested on: peripheral mast cells of TgAPP mice; assay: In vivo mast cell analysis (flow cytometry of whole blood, CD117 / FcεR1); design: species or system mouse; key to CD117 (single-labelled mast cells): % of single-labelled (CD117+) mast cells; CD117 Total: unit not given here; conditions: for ratio of immature-to-mature mast cells (c-KIT+ versus c-KIT+/FcεR1α+) in whole blood: TgAPP mice, BK40143 5 mg/kg, BK40197 45 mg/kg, 6 wk, vs DMSO
Description: c-KIT is responsible for mast cell development and homeostasis ([Lake et al, 1978]; [Linnekin, 1999]; [Kitamura et al, 2006]). TKs are the central driving force for processes leading to mast cell activation ([Parravicini et al, 2002]; [Gomez et al, 2005]). Multiple receptors are capable of mediating or modifying mast cell activation ([Kraft & Kinet, 2007]; [Kuehn & Gilfillan, 2007]), the major receptor responsible being FcεRI, the high affinity receptor for immunoglobulin E (IgE) ([Rivera & Gilfillan, 2006]). Mast cells are tissue-resident cells of hematopoietic lineage which are derived from CD13^+CD34^+KIT(CD117)^+ bone marrow pluripotent progenitors ([Kirshenbaum et al, 1999]). Although mast cells play an important role in the innate immune system ([Marshall, 2004]; [Galli et al, 2005]), these cells are also responsible for the detrimental exaggerated reactions to antigen ([Galli et al, 2008]) that follow the release of potent inflammatory mediators as a consequence of receptor-mediated mast cell activation ([Metcalfe et al, 1997]). The progression of these cells to fully mature mast cells is dependent on c-KIT activation which occurs because of stem cell factor-induced c-KIT dimerization and auto-phosphorylation ([Kirshenbaum et al, 1999]). To verify the functional effects of BK40143 and BK40197 on c-KIT inhibition, we investigated whether inhibition of c-KIT with BK40143 and BK40197 affects peripheral mast cell populations in vivo. We collected whole blood samples from Tg(SwDI) (referred to as TgAPP) mice treated with 5 or 45 mg/kg of each drug, respectively, or DMSO for 6 wk before isolating mast cells for analysis via flow cytometry (Fig 3A–C). Whole blood was sorted for mast cells using a triple gating strategy: 647 anti-CD45 to isolate leukocytes, PE anti-c-KIT to isolate mast cells, and APC/fire anti-FcεR1α to identify mature mast cells. The ratio of immature-to-mature mast cells (c-KIT+ versus c-KIT+/ FcεR1α+) was compared between c-KIT inhibited and DMSO-treated controls to determine the functional consequence of c-KIT inhibition on peripheral mast cell maturation.
Whole blood samples were harvested from the right ventricle of treated and untreated mice and added to 1,000 U/ml heparin-coated tubes to prevent coagulation. 100 μl of blood was then treated with three flow-conjugated antibodies: 647 anti-mouse CD45 (cat. #103123; BioLegend), PE anti-mouse CD117 (c-KIT) (cat. # 105807; BioLegend), and APC/fire 750 anti-mouse FcεR1α (cat. #134339; BioLegend) for 30 min, then treated with 1x RBC lysis buffer (cat. #420301; BioLegend) for 20 min. Cells were washed and resuspended in cell staining buffer before being analyzed on a Becton Dickinson LSRFortessas flow cytometer. Immature-to-mature mast cell ratio was calculated by dividing the percentage of single-labelled (CD117+) mast cells by the total number of c-KIT expressing cells (CD117+ plus CD117+ FcεR1+). All animal work was approved by Georgetown University Animal Care and Use Committee (GUACUC).

[3] = 5mg/kg, whole blood, individual mice

SMILES	amyloid concentrations in dentate gyrus (6E10 staining) [1]	ratio of immature-to-mature mast cells (c-KIT+ versus c-KIT+/FcεR1α+) in whole blood [2]	CD117 (single-labelled mast cells) [2, 3]	CD117 / Total (immature-to-mature mast cell ratio) [2, 3]	CD117/FcER1 (double-labelled mast cells) [2, 3]	CD117 Total [2, 3]
Cc1cccc(-c2cc3nccc(N4CCOCC4)c3s2)c1 [BK40197]	robustly decreased amyloid concentrations in the dentate gyrus of the hippocampus	not statistically significant (P = 0.07) increase in immature-to-mature mast cell ratio				
Cc1cccc(-c2cc3nccc(Nc4ccccc4)c3s2)c1 [BK40143]	robustly decreased amyloid concentrations in the dentate gyrus of the hippocampus	significantly greater ratio of immature-to-mature mast cells	1.06 and 0.7 and 1.08 and 1.14 and 0.83 and 6.55 and 2.98	0.9815 and 0.9589 and 0.9231 and 0.9661 and 0.9881 and 0.9278 and 0.9141	0.02 and 0.03 and 0.09 and 0.04 and 0.01 and 0.51 and 0.28	1.08 and 0.73 and 1.17 and 1.18 and 0.84 and 7.06 and 3.26

Source: article PMC11249953, “c-KIT inhibitors reduce pathology and improve behavior in the Tg(SwDI) model of Alzheimer’s disease” (Life Science Alliance, 2024)
